ChEMBL document CHEMBL4400584, “Relative Configurational Assignment of 4-Hydroxyprorocentrolide and Prorocentrolide C Isolated from a Benthic Dinoflagellate ( Prorocentrum lima)” (J Nat Prod, 2019)

Assays:
Assay type in all cases: functional, cell-based
HCT-116 = test: Cytotoxicity against human HCT116 cells assessed as reduction in cell viability after 48 hrs by MTT assay; conditions: HCT-116, 48 h
N2a = test: Cytotoxicity against mouse Neuro2a cells assessed as reduction in cell viability after 48 hrs by MTT assay
HepG2 = test: Cytotoxicity against human HepG2 cells assessed as reduction in cell viability after 48 hrs by MTT assay; conditions: HepG2, 48 h

Row | SMILES | IC50 (HCT-116) | IC50 (N2a) | IC50 (HepG2)
1 | C=C1CCC[C@H]2O[C@H](CC3=C[C@@H]4/C(C)=C/C[C@@H](C)C[C@@H](/C=C(\C)[C@@H](O)[C@@H]5C[C@@H](O)[C@H](O)[C@@H](CC[C@H](O)/C=C/C(C)=C/CCC6=NCC[C@H](C3)[C@@]64C)O5)OC(=O)C[C@@H]3O[C@H]([C@@H](O)[C@H]3O)[C@@H](O)C1)C[C@@H](O)[C@@H]2O | > 10000 nM | > 10 µM | > 10 µM
2 | C=C1CC/C=C/[C@@H](O)[C@H](O)C[C@H](O)CC2=C[C@@H]3/C(C)=C/C[C@@H](C)C[C@@H](/C=C(\C)[C@@H](O)[C@@H]4C[C@@H](O)[C@H](O)[C@@H](CC[C@H](O)/C=C/C(C)=C/CCC5=NCC[C@H](C2)[C@@]53C)O4)OC(=O)C[C@@H]2O[C@H]([C@@H](O)[C@H]2O)[C@@H](O)C1 | 2200 nM | 5.2 µM | > 50 µM
